Results published in patent US11813268B2, “Mitofusin activators and uses thereof” (Albert Einstein College of Medicine, priority 2017, dated 2023).

Legend:
[1] = test system: WT MEFs; test: cells
Text: Next, it was visually examined if MASM7 could induce mitochondrial fusion in MEFs, using mitochondrial aspect ratio (mitochondrial length/width, reflecting fusion) as a readout. […] (FIG. 5).

[2] = test system: MEFs; test: Cell viability assay (CellTiter-Glo) in MEFs; assay type: cell-based; settings: 24 h
Protocol: Cells (5×10^3 cells/well) were seeded in a 96-well white plate and treated with serial dilutions of MASM7 or vehicle (0.1% DMSO). Cell viability was assayed after 24 h by addition of CellTiter-Glo reagent according to the manufacturer's protocol (Promega). Luminescence was measured using a F200 PRO microplate reader (TECAN). Viability assays were performed in at least triplicate and the data normalized to vehicle-treated control wells. Dilutions of MASM7 were performed using a TECAN D300e Digital Dispenser from 10 mM stocks.

[3] = test system: MEFs; test: Caspase-3/7 activation assay in MEFs; assay type: cell-based; settings: 5 μM, 24 h
Protocol: Cells (5×10^3 cells/well) were seeded in a 96-well white plate and treated with MASM7 (5 μM), doxorubicin (1 μM) or vehicle (0.05% DMSO). Caspase 3/7 activation was measured after 24 h by addition of the Caspase-Glo 3/7 chemiluminescence reagent according to the manufacturer's protocol (Promega). Luminescence was detected by a […] microplate reader (TECAN).

[4] = test system: MEFs; test: TMRE mitochondrial membrane potential assay in MEFs; assay type: cell-based; settings: 5 μM, 24 h
Protocol: Carbonyl cyanide 3-chlorophenylhydrazone (CCP) was used as a positive control (20 μM, 40 min). Following treatments, cells were stained with 400 nM TMRE (Sigma Cat. 87917) for 20 min at 37° C. Subsequently, cells were washed with once with PBS. Fluorescence intensity was detected by a M100 microplate reader (TECAN, Ex: 540 nm/Em: 579 nm).

[5] = test system: MEFs; test: Staurosporine-induced apoptosis (active caspase 3) in MEFs; assay type: cell-based; settings: co-treated with staurosporine (STS)
Protocol: Transfected HEK 293T or MEFs were washed with once PBS and fixed with 2% PFA for 13 min. Subsequently, cells were blocked, then incubated for 1 h at room temperature with the primary antibody for ATP5B (Abcam; ab128743) or active caspase 3 (R&D Systems; AF835). After incubation with the primary antibody, cells were washed with PBS and incubated for 1 h at room temperature with the secondary antibody (ThermoFisher Scientific; A11010). […] Data were analyzed with Image J software.
Consistent with previous reports showing that inhibition of fission reduced apoptosis (8,12-14), the effect of MASM7 was evaluated upon a classic apoptotic stimulus such as staurosporine (STS) in MEFs.

[6] = test system: cancer cells; test: Toxicity in cancer cells; settings: 15 μM, 72 h
Text: (§1) TMRE staining was used as readout. […] CellROX was used to evaluate ROS levels.

[7] = test system: lymphoma cells; test: Viability of lymphoma cells
Text: as §1

[8] = test system: Farage cells; test: Caspase 3 activation in Farage cells
Text: as §1

[9] = test system: Farage cells; test: ROS levels (CellROX) in Farage cells
Text: as §1

[10] = test system: WT MEFs; test: Mitochondrial respiration (Seahorse OCR) in WT MEFs; settings: 1 μM, 2 h
[11] = test system: Farage cells; test: TMRE mitochondrial membrane potential in Farage cells
Text: as §1

[12] = test system: MFN1/MFN2 DKO MEFs; settings: 1 μM, 2 h
Protocol: Mitochondrial respiration. Mitochondrial oxygen consumption rates (OCR) were assessed using a XF24 Analyzer (Seahorse Biosciences, Billerica Mass., USA). […] OCR was normalized to cell number or total protein content per well for each condition tested. […] Data are expressed as Mean±SEM, OCR from untreated control for each condition; using n=3-5 individual experiments with n=3-5 replicates for each group tested.

[13] = test system: MFN1/MFN2 DKO MEFs reconstituted with WT, L727A and D725A/L727A MFN2; settings: L727A and D725A/L727A MFN2 vs WT
Protocol: Evaluation of mitochondrial morphology using mitochondrial aspect ratio (Mito AR; length/width) as a readout. […] Mitotracker green stains mitochondria. Scale bar 20 μm. […] Quantification of Mito AR in MFN1/MFN2 DKO MEFs reconstituted with WT, L727A and D725A/L727A MFN2.
Live cell imaging. […] Images were taken with Leica SP5 inverted confocal microscope. Data were analyzed with Image J software. >200 mitochondria were measured per condition in mitochondrial aspect ratio.

CC(Sc1nnc(C2CC2)n1-c1ccccc1)C(=O)Nc1sc2c(c1C(N)=O)CCC2 (stereo not drawn) [MASM7]
Mitochondrial aspect ratio in WT MEFs ([1]; 1 μM, 2 h): increased mitochondrial aspect ratio
EC50 ([1]; read-out: EC50 for inducing fusion (Mito AR)): 75 nM
Viability of MEFs [2]: did not reduce viability
Caspase 3/7 activation in MEFs [3]: did not induce caspase 3/7 activation
Mitochondrial membrane potential in MEFs (TMRE) [4]: did not reduce viability or mitochondrial membrane potential
Population of MEFs positive to caspase 3 activation [5]: reduced significantly
Toxicity in the indicated cancer cells [6]: low to moderate toxicity
Viability of lymphoma cells [7]: reduces viability selectively in lymphoma cells
Caspase 3 activation in Farage cells [8]: promotes caspase 3 activation in a dose and time dependent manner
ROS levels in Farage cells (CellROX) [9]: increases ROS levels
ATP production, WT MEFs [10]: increases ATP production
Basal and maximal oxygen consumption rate (OCR), WT MEFs [10]: increases basal and maximal oxygen consumption rate (OCR)
Mitochondrial membrane potential in Farage cells (TMRE) [11]: reduces mitochondrial membrane potential in a dose and time dependent manner
Basal and maximal OCR, MFN1/MFN2 DKO MEFs [12]: does not increase basal and maximal OCR
MASM7-induced fusion (Mito AR) with HR2 domain mutations of Mfn2 [13]: inhibits MASM7-induced fusion
